# Laboratory results from patent US20160159773A1, “HETEROCYCLIC COMPOUND” (TAKEDA PHARMACEUTICAL COMPANY LIMITED, priority 2013, published 2016).
# Where a name gives a salt, the structure may show the parent alone.
# Molecular target: T1, Tyk2 (Homo sapiens, UniProt P29597)
# T1 construct: purchased Invitrogen
# Assay: Tyk2 enzyme inhibition test (LANCE method)
# Format: biochemical
# Details: test compound 1 μM; well without enzyme = 100% inhibition; read-out: Tyk2 enzyme inhibitory activity (%, 1 μM)
# Experimental: Tyk2 Enzyme Inhibition Test
# Tyk2 enzyme inhibitory activity of test compounds was measured by LANCE method (PerkinElmer). First, a test compound diluted with assay buffer (50 mM HEPES (pH=7.5), 10 mM MgCl2, 1 mM EGTA, 2 mM DTT, 0.01% Tween20, 0.01% BSA) was added to 384-well plate at 2 μL each. Then, a Tyk2 (Invitrogen) solution and a fluorescence-labeled peptide substrate (ULight-JAK1, PerkinElmer) solution diluted with assay buffer at 375 ng/mL and 300 nM, respectively were added at 2 μL each. Then, enzyme reaction was started by adding 2 μL each of ATP solution prepared with assay buffer at 30 μM. After the reaction at room temperature for 1 hr, Detection Buffer (PerkinElmer) prepared to be 20 mM EDTA, 4 nM europium-labeled anti-phosphotyrosine antibody (PerkinElmer) was added at 6 μL each. After standing at room temperature for 1 hr, fluorescence intensity (excitation wavelength 340 nm, fluorescence wavelength 665 nm, delay time 100 microsecond) was measured by a plate reader, Envision (PerkinElmer). The inhibitory activity of each compound was calculated as relative value where fluorescence intensity of a well without enzyme is considered as 100% inhibition.
# T1 sequence (P29597 whole entry): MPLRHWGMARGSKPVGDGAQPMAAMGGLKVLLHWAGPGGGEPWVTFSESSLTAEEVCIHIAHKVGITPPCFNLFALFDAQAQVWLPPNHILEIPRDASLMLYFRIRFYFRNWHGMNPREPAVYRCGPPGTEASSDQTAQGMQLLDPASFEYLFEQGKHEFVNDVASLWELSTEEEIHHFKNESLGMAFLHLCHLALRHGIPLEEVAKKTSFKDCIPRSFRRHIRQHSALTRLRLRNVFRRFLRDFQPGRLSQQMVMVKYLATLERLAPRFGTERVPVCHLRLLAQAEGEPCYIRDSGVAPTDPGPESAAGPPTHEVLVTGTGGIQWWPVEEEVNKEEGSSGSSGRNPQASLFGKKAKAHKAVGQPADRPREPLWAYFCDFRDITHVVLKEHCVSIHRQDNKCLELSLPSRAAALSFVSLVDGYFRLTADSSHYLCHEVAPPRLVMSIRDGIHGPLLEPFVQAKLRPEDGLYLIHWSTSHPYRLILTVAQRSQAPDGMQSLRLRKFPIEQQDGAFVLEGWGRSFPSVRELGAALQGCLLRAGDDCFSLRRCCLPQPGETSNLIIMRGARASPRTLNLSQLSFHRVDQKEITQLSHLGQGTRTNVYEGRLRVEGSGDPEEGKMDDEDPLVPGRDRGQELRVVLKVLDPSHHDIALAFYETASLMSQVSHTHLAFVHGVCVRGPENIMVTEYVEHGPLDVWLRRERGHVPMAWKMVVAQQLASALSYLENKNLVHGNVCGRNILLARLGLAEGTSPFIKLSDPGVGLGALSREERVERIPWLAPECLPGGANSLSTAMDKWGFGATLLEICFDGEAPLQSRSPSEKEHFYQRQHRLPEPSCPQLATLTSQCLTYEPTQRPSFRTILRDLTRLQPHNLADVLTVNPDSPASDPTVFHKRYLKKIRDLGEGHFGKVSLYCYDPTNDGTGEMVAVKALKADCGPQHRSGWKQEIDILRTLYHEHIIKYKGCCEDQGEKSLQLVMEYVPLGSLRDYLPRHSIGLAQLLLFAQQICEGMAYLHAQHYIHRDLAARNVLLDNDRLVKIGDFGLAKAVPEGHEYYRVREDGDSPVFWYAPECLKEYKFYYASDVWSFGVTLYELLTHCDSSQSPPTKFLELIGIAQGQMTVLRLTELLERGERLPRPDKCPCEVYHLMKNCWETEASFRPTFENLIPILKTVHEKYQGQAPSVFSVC
row,Compound,inhibition at 1 µM [%]
1,"N#C[C@@]1(C2CC2)CCN(c2ccnc(Nc3cc(C(F)(F)F)ncn3)c2)C1=O [Example 43, (3S)-3-cyclopropyl-2-oxo-1-(2-((6-(trifluoromethyl)pyrimidin-4-yl)amino)pyridin-4-yl)pyrrolidine-3-carbonitrile]",95
2,"CNC(=O)c1cc(Nc2cc(N3CC[C@@](C#N)(C4CC4)C3=O)ccn2)nn1C [Example 5, 3-((4-((3S)-3-cyano-3-cyclopropyl-2-oxopyrrolidin-1-yl)pyridin-2-yl)amino)-N,1-dimethyl-1H-pyrazole-5-carboxamide]",101
3,"N#C[C@@]1(C2CC2)CCN(c2ccnc(Nc3cccnn3)c2)C1=O [Example 92, (3S)-3-cyclopropyl-2-oxo-1-(2-(pyridazin-3-ylamino)pyridin-4-yl)pyrrolidine-3-carbonitrile]",96
4,"N#CC1(C2CC2)CCN(c2ccnc(Nc3ccc(N4CCOCC4)cn3)c2)C1=O (stereo not shown) [Example 127, 3-cyclopropyl-1-(2-((5-(morpholin-4-yl)pyridin-2-yl)amino)pyridin-4-yl)-2-oxopyrrolidine-3-carbonitrile]",83
5,"N#C[C@@]1(C2CC2)CCN(c2ccnc(Nc3ccc(N4CCOCC4)cn3)c2)C1=O [Example 1, (3S)-3-cyclopropyl-1-(2-((5-(morpholin-4-yl)pyridin-2-yl)amino)pyridin-4-yl)-2-oxopyrrolidine-3-carbonitrile]",99
6,"CC(=O)Nc1ccnc(Nc2cc(N3CC[C@@](C#N)(C4CC4)C3=O)ccn2)c1 [Example 29, N-(2-((4-((3S)-3-cyano-3-cyclopropyl-2-oxopyrrolidin-1-yl)pyridin-2-yl)amino)pyridin-4-yl)acetamide]",100
7,"Cn1nc(Nc2cc(N3CC[C@@](C#N)(C4CC4)C3=O)ccn2)cc1C(N)=O [Example 138, 3-((4-((3S)-3-cyano-3-cyclopropyl-2-oxopyrrolidin-1-yl)pyridin-2-yl)amino)-1-methyl-1H-pyrazole-5-carboxamide]",102
8,"CNC(=O)c1cc(Nc2cc(N3C(=O)[C@](C#N)(C4CC4)C[C@H]3C)ccn2)nn1C [Example 136, 3-((4-((3S,5R)-3-cyano-3-cyclopropyl-5-methyl-2-oxopyrrolidin-1-yl)pyridin-2-yl)amino)-N,1-dimethyl-1H-pyrazole-5-carboxamide]",106
9,"CC(C)(CO)n1cc(Nc2cc(N3CCC(C#N)(C4CC4)C3=O)ccn2)cn1 (stereo not shown) [Example 129, 3-cyclopropyl-1-(2-((1-(1-hydroxy-2-methylpropan-2-yl)-1H-pyrazol-4-yl)amino)pyridin-4-yl)-2-oxopyrrolidine-3-carbonitrile]",90
10,"C[C@@H]1C[C@@](C#N)(C2CC2)C(=O)N1c1ccnc(Nc2cc(C(N)=O)n(C)n2)c1 [Example 137, 3-((4-((3S,5R)-3-cyano-3-cyclopropyl-5-methyl-2-oxopyrrolidin-1-yl)pyridin-2-yl)amino)-1-methyl-1H-pyrazole-5-carboxamide]",107
11,"Cn1nc(Nc2cc(N3CC[C@@](C#N)(C4CC4)C3=O)ccn2)cc1N1CCOCC1 [Example 31, (3S)-3-cyclopropyl-1-(2-((1-methyl-5-(morpholin-4-yl)-1H-pyrazol-3-yl)amino)pyridin-4-yl)-2-oxopyrrolidine-3-carbonitrile]",100
12,"CC(C)(O)c1ccc(Nc2cc(N3CC[C@@](C#N)(C4CC4)C3=O)ccn2)nc1 [Example 3, (3S)-3-cyclopropyl-1-(2-((5-(2-hydroxypropan-2-yl)pyridin-2-yl)amino)pyridin-4-yl)-2-oxopyrrolidine-3-carbonitrile]",99
13,"CCC1(C#N)CCN(c2ccnc(Nc3ccc(N4CCOCC4)cn3)c2)C1=O (stereo not shown) [Example 126, 3-ethyl-1-(2-((5-(morpholin-4-yl)pyridin-2-yl)amino)pyridin-4-yl)-2-oxopyrrolidine-3-carbonitrile hydrochloride]",72
